Source: patent US12508286B2, “Composition for treating spinal cord injury, comprising stem cells treated with novel compound” (YJ CERAPEUTICS INC., priority 2019, dated 2025)

Tested on: MSCs
Experiment: Stem cell differentiation confirmed with neural lineage markers
Type: cell-based
Conditions: MSCs cultured in a medium containing the compound for 5 days
Description: Referring to FIGS. 3 and 4, MSCs were cultured in a medium containing the compound for 5 days, and the differentiation status was confirmed using a neural lineage marker. As a result.
MSCs of passage 3 received from Kangstem Biotech were maintained in a KSB3 basal medium containing 10% FBS (Gibco) and supplements.
After passage 1, MSCs of passage 4 were stocked and stored in liquid nitrogen.
Referring to FIG. 1, MSCs of passage 5 were seeded at 1 mL per well in 12 wells diluted to 1.1×10^4/mL.
After 4 hours, the cells were treated with 40 μM of L1 or L3 or 30 μM of L2 (Formula 1).
After three days, the medium was changed with a new medium, and the cells were treated with the compound in the same manner and then additionally cultured for two days.

**Q.** With `CCc1ccc(N(C(=O)COC)c2nc3cc(Cl)ccc3o2)cc1` [L2, N-(5-Chlorobenzo[d]oxazol-2-yl)-N-(4-ethylphenyl)-2-methoxyacetamide] as the compound, how does the GFAP expression read?
**A.** Its GFAP expression is “hardly expressed”.

**Q.** And the Nestin expression?
**A.** The Nestin expression was “hardly expressed”.

**Q.** What about the Tuj1-positive cells of the same compound?
**A.** Its Tuj1-positive cells is no less than 90%.
